{
  "source": "ChEMBL document CHEMBL4613324",
  "about": "“Design, Synthesis, and Evaluation of a Series of Novel Super Long-Acting DPP-4 Inhibitors for the Treatment of Type 2 Diabetes” (J Med Chem, 2020)",
  "key": {"[1]": {"molecular_target": "T1, Cytochrome P450 2C8 (Homo sapiens, UniProt P10632)", "T1 sequence (P10632 whole entry)": "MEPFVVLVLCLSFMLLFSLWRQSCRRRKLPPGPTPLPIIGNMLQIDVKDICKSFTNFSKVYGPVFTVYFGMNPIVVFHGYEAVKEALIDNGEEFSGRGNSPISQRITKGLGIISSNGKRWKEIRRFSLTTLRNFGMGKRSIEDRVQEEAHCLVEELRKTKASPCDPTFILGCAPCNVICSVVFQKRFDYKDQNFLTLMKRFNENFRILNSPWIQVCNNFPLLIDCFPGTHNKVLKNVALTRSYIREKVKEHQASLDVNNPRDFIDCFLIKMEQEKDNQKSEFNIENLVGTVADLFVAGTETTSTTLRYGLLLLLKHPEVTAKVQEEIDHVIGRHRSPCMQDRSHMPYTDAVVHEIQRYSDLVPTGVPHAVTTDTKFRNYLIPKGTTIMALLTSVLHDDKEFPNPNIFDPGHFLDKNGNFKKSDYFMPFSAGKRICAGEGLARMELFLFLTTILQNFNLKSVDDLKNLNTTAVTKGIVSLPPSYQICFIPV", "assay": "(§1) Inhibition of recombinant human CYP2C8", "type": "ADME"}, "[2]": {"assay": "Half life in ICR mouse at 2 mg/kg, po measured after 0.0833 to 120 hrs by LC-MS-MS analysis", "type": "ADME, organism-based", "conditions": "in vivo"}, "[3]": {"molecular_target": "Cytochrome P450 2D6 (Homo sapiens, UniProt P10635)", "sequence (P10635 whole entry)": "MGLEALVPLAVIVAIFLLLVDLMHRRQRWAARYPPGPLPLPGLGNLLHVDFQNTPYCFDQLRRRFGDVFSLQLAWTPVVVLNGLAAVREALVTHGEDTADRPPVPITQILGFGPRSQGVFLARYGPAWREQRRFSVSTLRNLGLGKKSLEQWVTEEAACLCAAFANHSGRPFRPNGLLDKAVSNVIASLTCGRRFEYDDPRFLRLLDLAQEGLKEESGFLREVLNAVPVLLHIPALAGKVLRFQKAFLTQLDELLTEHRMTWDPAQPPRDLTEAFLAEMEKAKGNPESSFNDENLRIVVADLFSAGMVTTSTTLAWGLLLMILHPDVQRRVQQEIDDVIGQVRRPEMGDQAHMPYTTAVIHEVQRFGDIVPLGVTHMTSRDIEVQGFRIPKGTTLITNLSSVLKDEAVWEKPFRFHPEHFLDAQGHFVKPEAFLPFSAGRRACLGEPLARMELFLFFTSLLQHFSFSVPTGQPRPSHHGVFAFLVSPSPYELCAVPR", "assay": "Inhibition of recombinant human CYP2D6", "type": "ADME"}, "[4]": {"molecular_target": "Cytochrome P450 3A4 (Homo sapiens, UniProt P08684)", "sequence (P08684 whole entry)": "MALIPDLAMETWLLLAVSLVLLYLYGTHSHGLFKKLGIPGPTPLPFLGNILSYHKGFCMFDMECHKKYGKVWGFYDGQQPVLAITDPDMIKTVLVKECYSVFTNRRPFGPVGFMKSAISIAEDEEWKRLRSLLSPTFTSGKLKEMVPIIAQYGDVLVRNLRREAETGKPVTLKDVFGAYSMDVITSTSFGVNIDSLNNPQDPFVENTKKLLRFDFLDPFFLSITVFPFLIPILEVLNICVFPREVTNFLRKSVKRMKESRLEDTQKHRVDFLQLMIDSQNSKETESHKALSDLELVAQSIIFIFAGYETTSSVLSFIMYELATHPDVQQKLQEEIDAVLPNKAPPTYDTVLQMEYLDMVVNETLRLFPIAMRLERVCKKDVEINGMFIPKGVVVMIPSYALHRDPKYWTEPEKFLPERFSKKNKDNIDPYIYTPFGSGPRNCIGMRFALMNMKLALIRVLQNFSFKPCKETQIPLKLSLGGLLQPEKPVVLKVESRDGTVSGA", "assay": "Inhibition of recombinant human CYP3A4 using testosterone as substrate", "type": "ADME"}, "[5]": {"test_system": "Mus musculus", "assay": "Antidiabetic activity in ob/ob mouse assessed as reduction in decrease in HbA1c level at 10 mg/kg, po dosed once every three days for 31 day relative to control", "type": "functional", "set-up": "scale not given: the % may be the effect or the level left"}, "[6]": {"molecular_target": "T2, Cytochrome P450 1A2 (Homo sapiens, UniProt P05177)", "T2 sequence (P05177 whole entry)": "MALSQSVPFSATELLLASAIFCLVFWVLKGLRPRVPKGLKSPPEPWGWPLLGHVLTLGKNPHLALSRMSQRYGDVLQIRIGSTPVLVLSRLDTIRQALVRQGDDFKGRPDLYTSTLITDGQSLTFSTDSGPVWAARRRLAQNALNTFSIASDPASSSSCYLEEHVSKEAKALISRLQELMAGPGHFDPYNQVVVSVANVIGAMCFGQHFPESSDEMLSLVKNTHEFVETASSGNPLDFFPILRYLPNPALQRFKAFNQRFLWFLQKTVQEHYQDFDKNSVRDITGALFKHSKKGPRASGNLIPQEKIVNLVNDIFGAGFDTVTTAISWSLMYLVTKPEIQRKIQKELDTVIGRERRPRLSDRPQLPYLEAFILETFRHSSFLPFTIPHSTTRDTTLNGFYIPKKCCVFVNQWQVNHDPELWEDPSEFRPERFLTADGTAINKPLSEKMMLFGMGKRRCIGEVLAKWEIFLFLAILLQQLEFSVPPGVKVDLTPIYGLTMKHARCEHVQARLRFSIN", "assay": "Inhibition of recombinant human CYP1A2", "type": "ADME"}, "[7]": {"assay": "Toxicity in Sprague-Dawley rat during single oral dose toxicology study", "conditions": "in vivo"}, "[8]": {"molecular_target": "Cytochrome P450 2C19 (Homo sapiens, UniProt P33261)", "sequence (P33261 whole entry)": "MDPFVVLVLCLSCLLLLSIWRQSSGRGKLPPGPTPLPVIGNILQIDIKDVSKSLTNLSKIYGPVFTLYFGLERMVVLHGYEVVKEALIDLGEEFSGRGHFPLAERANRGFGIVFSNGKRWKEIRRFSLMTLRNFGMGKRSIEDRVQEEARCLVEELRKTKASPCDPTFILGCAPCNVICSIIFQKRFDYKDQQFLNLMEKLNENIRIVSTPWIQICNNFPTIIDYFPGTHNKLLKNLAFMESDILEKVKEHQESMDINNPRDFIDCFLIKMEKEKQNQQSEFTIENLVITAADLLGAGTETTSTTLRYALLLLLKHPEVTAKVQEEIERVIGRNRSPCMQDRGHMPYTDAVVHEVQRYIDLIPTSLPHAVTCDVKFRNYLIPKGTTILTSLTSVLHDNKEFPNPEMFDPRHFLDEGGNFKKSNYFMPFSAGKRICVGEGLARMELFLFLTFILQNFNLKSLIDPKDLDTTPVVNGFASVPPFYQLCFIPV", "assay": "Inhibition of recombinant human CYP2C19", "type": "ADME"}, "[9]": {"molecular_target": "Cytochrome P450 3A5 (Homo sapiens, UniProt P20815)", "sequence (P20815 whole entry)": "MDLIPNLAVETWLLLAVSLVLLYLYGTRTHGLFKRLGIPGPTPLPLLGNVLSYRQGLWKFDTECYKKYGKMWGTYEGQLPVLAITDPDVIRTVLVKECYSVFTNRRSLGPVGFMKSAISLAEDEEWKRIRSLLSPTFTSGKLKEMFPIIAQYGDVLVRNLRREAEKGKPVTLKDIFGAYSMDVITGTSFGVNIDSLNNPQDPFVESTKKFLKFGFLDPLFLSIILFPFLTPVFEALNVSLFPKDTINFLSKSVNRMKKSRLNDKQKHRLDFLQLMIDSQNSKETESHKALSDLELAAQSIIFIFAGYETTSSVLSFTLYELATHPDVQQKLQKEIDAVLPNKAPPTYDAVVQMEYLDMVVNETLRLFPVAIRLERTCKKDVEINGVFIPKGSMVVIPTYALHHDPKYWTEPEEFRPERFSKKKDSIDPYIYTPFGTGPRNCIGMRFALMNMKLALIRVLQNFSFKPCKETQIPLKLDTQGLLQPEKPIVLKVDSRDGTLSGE", "assay": "Inhibition of recombinant human CYP3A5 using midazolam as substrate", "type": "ADME"}, "[10]": {"test_system": "Rhesus monkey", "assay": "Ex-vivo inhibition of DPP4 in plasma isolated from rhesus monkey treated at 10 mg/kg, ig after 3 weeks by fluorescence based assay relative to control", "type": "functional", "conditions": "Macaca mulatta, po, 504 h"}, "[11]": {"molecular_target": "T1, Cytochrome P450 2C8", "assay": "as §1", "type": "ADME", "remark": "listed apart in the source"}, "[12]": {"molecular_target": "Dipeptidyl peptidase 4 (Mus musculus) (UniProt P28843)", "sequence (P28843 whole entry, looked up)": "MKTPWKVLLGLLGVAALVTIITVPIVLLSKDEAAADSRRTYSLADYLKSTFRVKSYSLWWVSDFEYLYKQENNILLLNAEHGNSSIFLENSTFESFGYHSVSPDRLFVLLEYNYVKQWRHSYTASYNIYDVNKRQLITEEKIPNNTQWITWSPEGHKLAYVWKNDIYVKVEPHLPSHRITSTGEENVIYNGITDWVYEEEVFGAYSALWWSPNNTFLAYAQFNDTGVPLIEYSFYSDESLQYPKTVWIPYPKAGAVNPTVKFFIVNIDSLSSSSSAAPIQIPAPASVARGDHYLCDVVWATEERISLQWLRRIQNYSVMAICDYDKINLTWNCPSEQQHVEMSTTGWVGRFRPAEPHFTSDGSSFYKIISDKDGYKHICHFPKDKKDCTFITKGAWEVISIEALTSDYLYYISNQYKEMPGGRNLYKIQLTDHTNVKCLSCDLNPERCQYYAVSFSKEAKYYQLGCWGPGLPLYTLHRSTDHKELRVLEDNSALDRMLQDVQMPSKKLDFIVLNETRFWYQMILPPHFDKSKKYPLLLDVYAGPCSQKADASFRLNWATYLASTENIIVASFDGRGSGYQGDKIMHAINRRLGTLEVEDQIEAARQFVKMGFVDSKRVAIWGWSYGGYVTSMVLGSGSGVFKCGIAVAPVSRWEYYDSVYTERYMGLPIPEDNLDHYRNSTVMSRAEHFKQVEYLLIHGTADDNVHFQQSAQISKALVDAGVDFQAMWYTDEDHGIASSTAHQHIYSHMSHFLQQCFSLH", "assay": "Ex-vivo inhibition of DPP4 in plasma isolated from ob/ob mouse assessed as time duration during which DPP4 inhibition rate stays above 80% treated at 30 mg/kg, po measured after 2 to 72 hrs by fluorescence based assay", "type": "functional, organism-based"}, "[13]": {"molecular_target": "T1, Cytochrome P450 2C8", "assay": "as §1", "type": "ADME", "remark": "listed apart in the source"}},
  "data": [
    {"smiles": "CS(=O)(=O)n1cc2c(n1)CN([C@@H]1C[C@H](N)[C@@H](c3cc(F)ccc3F)O[C@@H]1C(F)(F)F)C2", "note": "[COFROGLIPTIN]", "values": [
      {"measurement": "IC50", "setting": "[1]", "value": "> 100", "unit": "µM"},
      {"measurement": "half-life", "setting": "[2]", "value": 29.9, "unit": "h"},
      {"measurement": "IC50", "setting": "[3]", "value": "> 100", "unit": "µM"},
      {"measurement": "IC50", "setting": "[4]", "value": "> 100", "unit": "µM"},
      {"measurement": "Activity", "setting": "[5]", "value": 16.2, "unit": "%"},
      {"measurement": "IC50", "setting": "[6]", "value": "> 100", "unit": "µM"},
      {"measurement": "MTD", "setting": "[7]", "value": 1000, "unit": "mg/kg"},
      {"measurement": "IC50", "setting": "[8]", "value": "> 100", "unit": "µM"},
      {"measurement": "IC50", "setting": "[9]", "value": 45.8, "unit": "µM"},
      {"measurement": "inhibition in vivo at 10 mg/kg", "setting": "[10]", "value": 43.4, "unit": "%"},
      {"measurement": "IC50", "setting": "[11]", "value": "> 100", "unit": "µM"},
      {"measurement": "TIME", "setting": "[12]", "value": 72, "unit": "h"},
      {"measurement": "IC50", "setting": "[13]", "value": 76.3, "unit": "µM"}
    ]}
  ]
}
